Assay results from US11267852B2, “Cell lines for screening odorant and aroma receptors” (Firmenich SA, priority 2015, dated 2022).

Key:
OR1A1 = biological target: T1, OR1A1 (Homo sapiens, UniProt Q9P1Q5); experiment: cell-based odorant assay, cAMP increase (HTRF), OR1A1; settings: modified RTP1 HEK293T cell line compared to unmodified control cell line
T1 construct: expressed in transfected cells
T1 sequence (Q9P1Q5 1-309): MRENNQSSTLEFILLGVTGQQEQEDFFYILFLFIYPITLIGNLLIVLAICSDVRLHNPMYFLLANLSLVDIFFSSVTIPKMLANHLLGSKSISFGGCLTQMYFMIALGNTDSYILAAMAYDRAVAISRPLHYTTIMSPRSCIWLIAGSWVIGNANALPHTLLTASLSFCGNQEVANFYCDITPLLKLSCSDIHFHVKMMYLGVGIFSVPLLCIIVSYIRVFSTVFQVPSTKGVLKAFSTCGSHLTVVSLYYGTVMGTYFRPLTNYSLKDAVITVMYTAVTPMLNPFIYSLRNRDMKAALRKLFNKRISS

Olfr741 = experiment: cell-based odorant assay, cAMP increase (HTRF), Olfr741; design: species or system mouse
Description: (§1) Functional dose-response experiments were performed in order to evaluate the level of functional enhancement of activity of odorant receptors in the modified cell line. Odorant receptors were modified at their N-terminus with short polypeptide sequences or tags [e.g. Flag (SEQ ID NO: 15), Rho (SEQ ID NO: 17; 20 first amino acids of the bovine rhodopsin receptor), or Lucy (SEQ ID NO: 19)], transiently expressed in WT or modified HEK293T cells, and stimulated with odorant compounds to determine the activity of the receptors. FIGS. 7 and 8) Using a cell-based odorant binding assay, the activity of Olfr741 (SEQ ID NO: 4) and Olfr742 (SEQ ID NO: 6) to indole was tested in the engineered RTP1 cell line and compared to HEK293T lacking RTP1 protein expression. Odorant receptors were transfected into both cell lines and exposed to increasing concentrations of indole. Odorant-induced activity was detected by measuring the level of cAMP increase in the cytosol using an HTRF based kit (CisBio, cAMP dynamic 2 kit, cat #62AM4PEJ). FIGS. 9 and 10) Using the same cell-based odorant binding assay, the activity of Olfr96 (SEQ ID NO: 8) and OR11A1 (SEQ ID NO: 10) to vulcanolide was tested in the engineered RTP1 expressing cell line and compared to HEK293T lacking RTP1 protein expression. The activity of Olfr740 (SEQ ID NO: 12) to indole was also tested in both cellular backgrounds. […]

Olfr742 = experiment: cell-based odorant assay, cAMP increase (HTRF), Olfr742; design: species or system mouse
Description: as §1

Olfr740 = experiment: cell-based odorant assay, cAMP increase (HTRF), Olfr740; design: species or system mouse
Description: as §1

Olfr96 = experiment: cell-based odorant assay, cAMP increase (HTRF), Olfr96; design: species or system mouse
Description: as §1

OR11A1 = biological target: T2, OR11A1 (Homo sapiens, UniProt Q9GZK7); experiment: cell-based odorant assay, cAMP increase (HTRF), OR11A1
T2 construct: expressed in transfected cells
T2 sequence (Q9GZK7 1-315): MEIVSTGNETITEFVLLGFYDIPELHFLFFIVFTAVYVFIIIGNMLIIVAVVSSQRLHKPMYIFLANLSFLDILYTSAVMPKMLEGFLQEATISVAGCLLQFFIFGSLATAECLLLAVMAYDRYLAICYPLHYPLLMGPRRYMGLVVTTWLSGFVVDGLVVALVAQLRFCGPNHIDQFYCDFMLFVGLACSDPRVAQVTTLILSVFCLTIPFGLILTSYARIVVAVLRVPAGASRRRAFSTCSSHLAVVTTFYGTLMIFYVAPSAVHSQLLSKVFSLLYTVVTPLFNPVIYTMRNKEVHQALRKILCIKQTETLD
Description: as §1

[1] = modified RTP1 HEK293T cell line, increasing concentrations
[2] = unmodified control HEK293T lacking RTP1 expression

C=C(C)C1CC=C(C)C(=O)C1 (stereo not drawn) [carvone-(−)]
receptor activity (cAMP increase), dose-response (OR1A1): more potent dose-dependent increase of receptor activity

c1ccc2[nH]ccc2c1 [indole]
receptor activity (cAMP increase), dose-response (Olfr741; [1]): dose-dependent increase of receptor activity
receptor activity (cAMP increase), dose-response (Olfr741; [2]): not in the unmodified control cell line
receptor activity (cAMP increase), dose-response (Olfr742; [1]): dose-dependent increase of receptor activity
receptor activity (cAMP increase), dose-response (Olfr742; [2]): not in the unmodified control cell line
receptor activity (cAMP increase), dose-response (Olfr740; [1]): dose-dependent increase of receptor activity
receptor activity (cAMP increase), dose-response (Olfr740; [2]): not in the unmodified control cell line

Cc1cc2c(cc1C=O)C(C)(C)[C@@H](C)[C@H](C)C2(C)C [vulcanolide]
receptor activity (cAMP increase), dose-response (Olfr96; [1]): dose-dependent increase of receptor activity
receptor activity (cAMP increase), dose-response (Olfr96; [2]): not in the unmodified control cell line
receptor activity (cAMP increase), dose-response (OR11A1; [1]): dose-dependent increase of receptor activity
receptor activity (cAMP increase), dose-response (OR11A1; [2]): not in the unmodified control cell line
